Experimental findings from ChEMBL document CHEMBL3272169, “10-Hydroxy-4-methyl-2,3,4,5,6,7-hexahydro-1,6-methano-1H-4-benzazonine derivatives (homobenzomorphans) as analgesics” (J Med Chem, 1976) are described below.

Where a name gives a salt, the structure may show the parent alone.

The ED50 is the dose at which the effect has come halfway, by size or by number of responders. Higher therefore signals weaker potency. In general, LD50 refers to the dose at which mortality reaches 50%. Higher therefore signals a less toxic substance.

Data set [1] concerns Mus musculus. As to the kind of experiment: Analgesic Activity in sc dosed albino dd mouse by tail pressure stimuli method. It is filed as functional.
Data set [2] is described as follows: Acute toxicity in iv dosed albino dd mouse. Type of data set: organism-based. As to conditions: in vivo.

Consider `CC(O)C(=O)O.CN1CCC2CC(Cc3ccccc32)C1` (stereo unspecified), for which the 50% effect level in data set [1] (ED50) was put at a dose of 53.1 µmol/kg. The LD50 in data set [2] was determined as 106 µmol/kg.

The compound `Br.CN1CC[C@@H]2CC(Cc3ccc(O)cc32)C1` gave an ED50 in data set [1] of 10.7 µmol/kg. In data set [2], this compound returned an LD50 of 121 µmol/kg. In the case of `CC(O)C(=O)O.C[C@H]1C2Cc3ccc(O)cc3[C@@H]1CCN(C)C2`, the ED50 in data set [1] was 9.9 µmol/kg. In addition, the LD50 in data set [2] was determined as 184 µmol/kg.

Take `CC(O)C(=O)O.C[C@@H]1C2Cc3ccc(O)cc3[C@@H]1CCN(C)C2`: in data set [1], the 50% effect level (ED50) was put at a dose of 8 µmol/kg. The LD50 in data set [2] was 153 µmol/kg. Compound `CC(O)C(=O)O.CN1CC[C@]2(C)CC(Cc3ccc(O)cc32)C1` showed an ED50 in data set [1] of 7 µmol/kg. In addition, the median lethal dose (LD50) in data set [2] was determined as 67 µmol/kg. In data set [1], `CC(O)C(=O)O.C[C@H]1C2Cc3ccc(O)cc3[C@]1(C)CCN(C)C2` registered an ED50 of 5.2 µmol/kg. This compound also showed an LD50 in data set [2] of 126 µmol/kg.

In turn, `Br.C[C@@H]1C2Cc3ccc(O)cc3[C@]1(C)CCN(C)C2` showed a median effective dose (ED50) in data set [1] of 4.1 µmol/kg. The 50% lethal dose (LD50) in data set [2] came to 113 µmol/kg. For the compound `COc1ccc2c3c1O[C@H]1[C@@H](O)C=C[C@H]4[C@@H](C2)N(C)CC[C@@]341` [CODEINE PHOSPHATE], in data set [1], it took a dose of 30.7 µmol/kg to reach the 50% effect level (ED50). `CN1CC[C@]23c4c5ccc(O)c4O[C@H]2[C@@H](O)C=C[C@H]3[C@H]1C5` [MORPHINE HYDROCHLORIDE] returned an ED50 in data set [1] of 4.4 µmol/kg.
